Experimental data as given in PubChem BioAssay (NCI).
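48-hour exposure; five concentrations; linearly interpolated endpoints. At the GI50, growth is halved. At the TGI there is no net growth.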

System: DLD-1 colon
Test: DTP human tumour cell line panel, 48 h

N#C[S-].[Nd+3].c1ccc(-c2ccccn2)nc1.c1ccc(-c2ccccn2)nc1.c1ccc(-c2ccccn2)nc1
GI50: 3.45 µM | TGI: > 100 µM
